Data set [1] can be described thus: Agonist activity at human AMY3R (CT+RAMP3) expressed in Hollex1 cells incubated for 3 hrs by luminescence assay. The following applies: Hollex1, 3 h. In kind it is cell-based.
Data set [2] is described as follows: Agonist activity at rat AMY3R (CT+RAMP3) expressed in tk-ts13 cells assessed as increase in intracellular cAMP level incuabted for 25 mins by CRE luciferase reporter gene assay. Type of data set: cell-based. The following applies: tk-ts13, 25 min. (In general: Changes in cAMP serve as a functional read-out for many G protein-coupled receptors.)
A short description of data set [3]: Solubility of the compound in bis-tris propane at pH 8 by UPLC analysis. Type of data set: physicochemical. The following applies: bis-tris propane buffer.
For data set [4], the target named is Insulin (Homo sapiens) (UniProt P01308). Put plainly: Effect on insulin (unknown origin) amyloid fibril formation assessed as lag time in glycyl-glycine buffer at pH 4 measured after 45 hrs by thioflavin-T fluorescence assay.
Data set [5] is described as follows: Solubility of the compound in bis-tris propane at pH 6 by UPLC analysis. Type of data set: physicochemical. The following applies: bis-tris propane buffer.
Data set [6] can be described thus: Solubility of the compound in lactate at pH 5 by UPLC analysis. In kind it is physicochemical. The following applies: lactate buffer.
The species named for another data set is Homo sapiens. The data set is described as follows: Ratio of EC50 for human calcitonin receptor expressed in BHK570 cells to EC50 for human AMY3R (CT+RAMP3) expressed in Hollex1 cells. Type of data set: cell-based.
Data set [7] can be described thus: Agonist activity at human calcitonin receptor expressed in BHK570 cells assessed as increase in intracellular cAMP concentration incubated for 3 hrs in absence of albumin by CRE luciferase reporter gene assay. Type of data set: cell-based. The following applies: BHK570, 3 h. A general note: Reporter assays use an easily measured gene product as a stand-in for the process of interest.

Data set [8] can be described thus: Solubility of the compound in bis-tris propane at pH 7 by UPLC analysis. In kind it is physicochemical. The following applies: bis-tris propane buffer.
In data set [9] the target is Insulin (Homo sapiens) (UniProt P01308). Put plainly: Effect on insulin (unknown origin) amyloid fibril formation assessed as peptide recovery in glycyl-glycine buffer at pH 4 measured after 45 hrs by thioflavin-T fluorescence assay relative to control. Details: concentration or dose not given beside the values.
Data set [10] can be described thus: Agonist activity at rat calcitonin receptor expressed in BHK-13 cells assessed as increase in intracellular cAMP concentration incubated for 25 mins by CRE luciferase reporter gene assay. Type of data set: cell-based. The following applies: BHK-13, 25 min.
Data set [11] is filed under the species Rattus norvegicus. The data set is described as follows: Ratio of EC50 for rat calcitonin receptor expressed in BHK-13 cells to EC50 for rat AMY3R (CT+RAMP3) expressed in tk-ts13 cells. In kind it is cell-based.
Data set [12] concerns Rattus norvegicus. Put plainly: Reduction in food intake in Sprague-Dawley rat at 3 nmol/kg, sc administered as single dose measured upto 24 hrs relative to control. Type of data set: functional. Also noted: scale not given: the % may be the effect or the level left. The following applies: time hrs <=24.
Data set [13] in a line: Solubility of the compound in bis-tris propane at pH 6.5 by UPLC analysis. Type of data set: physicochemical. The following applies: bis-tris propane buffer.
Data set [14] deals with Rattus norvegicus. Put plainly: Reduction in food intake in Sprague-Dawley rat at 3 nmol/kg, sc administered as single dose measured after 24 to 48 hrs relative to control. In kind it is functional. Also noted: scale not given: the % may be the effect or the level left. The following applies: time 24-48 hrs.
The nature of data set [15]: Solubility of the compound in lactate at pH 3 by UPLC analysis. The following applies: lactate buffer. In kind it is physicochemical.
Data set [16] in a line: Solubility of the compound in lactate at pH 4 by UPLC analysis. Type of data set: physicochemical. The following applies: lactate buffer.
A short description of data set [17]: Solubility of the compound in bis-tris propane at pH 7.5 by UPLC analysis. The following applies: bis-tris propane buffer. Type of data set: physicochemical.

Converted amounts (≈) assume the structure as drawn. *1 amine or outer side, *2 acyl side, *3 side chain or, on linkers, in order; H or OH if unused. Where a SMILES comes first, the peptide text is derived from it. Bridges are numbered along the chain shown (N, C = ends). [ ]: non-standard residue; d: D form. The star is where a group is joined. C20 diacid = O=C(O)CCCCCCCCCCCCCCCCCCC(=O)*; γGlu = O=C(O)[C@H](CCC(=O)[*:2])N[*:1]; AEEA = NCCOCCOCC(=O)O

Sequence of Insulin (Homo sapiens) (P01308 whole entry): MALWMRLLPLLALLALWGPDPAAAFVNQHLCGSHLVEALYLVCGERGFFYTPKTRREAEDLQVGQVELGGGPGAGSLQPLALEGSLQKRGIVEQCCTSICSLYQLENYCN

The term EC50 denotes the concentration needed to bring the measured effect to its halfway point. What is called solubility is how much of the substance goes into solution per volume. `CC[C@H](C)[C@H](NC(=O)[C@@H]1CCCN1C(=O)CNC(=O)[C@H](Cc1ccccc1)NC(=O)[C@H](CC(N)=O)NC(=O)[C@H](CC(N)=O)NC(=O)[C@H](CO)NC(=O)[C@H](CO)NC(=O)[C@H](Cc1c[nH]cn1)NC(=O)[C@H](CCCNC(=N)N)NC(=O)[C@H](CC(C)C)NC(=O)[C@H](Cc1ccccc1)NC(=O)[C@H](CCC(=O)O)NC(=O)[C@H](C)NC(=O)[C@H](CC(C)C)NC(=O)[C@H](CCCNC(=N)N)NC(=O)[C@H](CCC(N)=O)NC(=O)[C@@H](NC(=O)[C@H](C)NC(=O)[C@@H]1CSSC[C@H](NC(=O)[C@H](CCCCN)NC(=O)CC[C@H](NC(=O)CCCCCCCCCCCCCCCCCCC(=O)O)C(=O)O)C(=O)N[C@@H](CC(N)=O)C(=O)N[C@@H]([C@@H](C)O)C(=O)N[C@@H](C)C(=O)N[C@@H]([C@@H](C)O)C(=O)N1)[C@@H](C)O)C(=O)N[C@@H](CC(C)C)C(=O)N1CCC[C@H]1C(=O)N1CCC[C@H]1C(=O)N[C@H](C(=O)N[C@@H](CC(N)=O)C(=O)N[C@H](C(=O)NCC(=O)N[C@@H](CO)C(=O)N[C@@H](Cc1cnc[nH]1)C(=O)N[C@H](C(=O)N[C@@H](Cc1ccc(O)cc1)C(N)=O)[C@@H](C)O)C(C)C)[C@@H](C)O` ({C20 diacid-γGlu}-KCNTATCATQRLAEFLRHSSNNFGPILPPTNVGSHTY-NH2; disulfide 2-7): the EC50 was 0.111 nM in [1], 0.49 nM in data set [2], 0.379 nM in data set [7] and 2.54 nM in data set [10]. The solubility turned out to be 80 µM (≈ 360 µg/mL) in [3]; 200 µM (≈ 900 µg/mL) in data set [5]; 200 µM (≈ 900 µg/mL) in [6]; 200 µM (≈ 900 µg/mL) in data set [8]; 200 µM (≈ 900 µg/mL) in data set [13]; 200 µM (≈ 900 µg/mL) in [15]. The molecule also had a solubility in data set [16] of 200 µM (≈ 900 µg/mL). Also, the TIME at Insulin (Homo sapiens) [4] was 45 h. The Ratio EC50 in the data set listed under Homo sapiens came out at 3; in the data set listed under Rattus norvegicus [11], 5. Moreover, the Activity came to 100% at Insulin (Homo sapiens) [9], 17% in the data set with Rattus norvegicus [12] and 0% in the data set on Rattus norvegicus [14].
Take `CC[C@H](C)[C@H](NC(=O)[C@@H]1CCCN1C(=O)CNC(=O)[C@H](Cc1ccccc1)NC(=O)[C@H](CC(N)=O)NC(=O)[C@H](CC(N)=O)NC(=O)[C@H](CO)NC(=O)[C@H](CO)NC(=O)[C@H](Cc1cnc[nH]1)NC(=O)[C@H](Cc1cnc[nH]1)NC(=O)[C@H](CC(C)C)NC(=O)[C@H](Cc1ccccc1)NC(=O)[C@H](CCC(=O)O)NC(=O)[C@H](C)NC(=O)[C@H](CC(C)C)NC(=O)[C@H](CCCNC(=N)N)NC(=O)[C@H](CCC(N)=O)NC(=O)[C@@H](NC(=O)[C@H](C)NC(=O)[C@@H]1CSSC[C@H](NC(=O)[C@H](CCC(=O)O)NC(=O)CC[C@H](NC(=O)CCCCCCCCCCCCCCCCCCC(=O)O)C(=O)O)C(=O)N[C@@H](CC(N)=O)C(=O)N[C@@H]([C@@H](C)O)C(=O)N[C@@H](C)C(=O)N[C@@H]([C@@H](C)O)C(=O)N1)[C@@H](C)O)C(=O)N[C@@H](CC(C)C)C(=O)N1CCC[C@H]1C(=O)N1CCC[C@H]1C(=O)N[C@H](C(=O)N[C@@H](CC(N)=O)C(=O)N[C@H](C(=O)NCC(=O)N[C@@H](CO)C(=O)N[C@@H](CC(N)=O)C(=O)N[C@H](C(=O)N[C@@H](Cc1ccc(O)cc1)C(N)=O)[C@@H](C)O)C(C)C)[C@@H](C)O` ({C20 diacid-γGlu}-ECNTATCATQRLAEFLHHSSNNFGPILPPTNVGSNTY-NH2; disulfide 2-7): the EC50 in data set [1] was found to be 0.377 nM; in [7], 0.657 nM. Moreover, the solubility in data set [3], in [5], in data set [8], in data set [17], in [13] and in data set [15] was 200 µM (≈ 891 µg/mL) throughout. Also, in [16], the solubility stood at 200 µM (≈ 891 µg/mL). The TIME on Insulin (Homo sapiens) [4] was found to be 3 h. Also, the Ratio EC50 in the data set listed under Homo sapiens was 2. Besides, the Activity amounted to 0% at Insulin (Homo sapiens) [9], 15% in the data set with Rattus norvegicus [12] and 5% with Rattus norvegicus [14].
As to `CC[C@H](C)[C@H](NC(=O)[C@@H]1CCCN1C(=O)CNC(=O)[C@H](Cc1ccccc1)NC(=O)[C@H](CC(N)=O)NC(=O)[C@H](C)NC(=O)[C@H](CO)NC(=O)[C@H](CO)NC(=O)[C@H](CCCNC(=N)N)NC(=O)[C@H](Cc1cnc[nH]1)NC(=O)[C@H](CC(C)C)NC(=O)[C@H](Cc1ccccc1)NC(=O)[C@H](CCC(=O)O)NC(=O)[C@H](C)NC(=O)[C@H](CC(C)C)NC(=O)[C@H](CCCNC(=N)N)NC(=O)[C@H](CCC(N)=O)NC(=O)[C@@H](NC(=O)[C@H](C)NC(=O)[C@@H]1CSSC[C@H](NC(=O)[C@H](CCCCN)NC(=O)[C@@H](CCCNC(=N)N)NC(=O)[C@@H](CCCNC(=N)N)NC(=O)COCCOCCNC(=O)COCCOCCNC(=O)CC[C@H](NC(=O)CCCCCCCCCCCCCCCCCCC(=O)O)C(=O)O)C(=O)N[C@@H](CC(N)=O)C(=O)N[C@@H]([C@@H](C)O)C(=O)N[C@@H](C)C(=O)N[C@@H]([C@@H](C)O)C(=O)N1)[C@@H](C)O)C(=O)N[C@@H](CC(C)C)C(=O)N1CCC[C@H]1C(=O)N1CCC[C@H]1C(=O)N[C@H](C(=O)N[C@@H](CC(N)=O)C(=O)N[C@H](C(=O)NCC(=O)N[C@@H](CO)C(=O)N[C@@H](CO)C(=O)N[C@H](C(=O)N[C@@H](Cc1ccc(O)cc1)C(N)=O)[C@@H](C)O)C(C)C)[C@@H](C)O` ({C20 diacid-γGlu-AEEA-AEEA}-[dR][dR]KCNTATCATQRLAEFLHRSSANFGPILPPTNVGSSTY-NH2; disulfide 4-9), the EC50 was 0.14 nM in data set [1], 0.233 nM in [2], 1.08 nM in [7] and 4.48 nM in [10]. For the same molecule, the solubility in [3], in data set [5], in [6], in [8], in data set [17] and in [13] was 200 µM (≈ 1000 µg/mL) throughout. Besides, the solubility in data set [15] and in data set [16] was 200 µM (≈ 1000 µg/mL) throughout. In addition, the TIME at Insulin (Homo sapiens) [4] amounted to 45 h. Besides, the results for the Ratio EC50 in the data set filed under Homo sapiens and in the data set listed under Rattus norvegicus [11] were 8 and 19, respectively. Besides, the Activity at Insulin (Homo sapiens) [9] amounted to 94%; with Rattus norvegicus [12] it was 16%; in the data set on Rattus norvegicus [14], 0%.
As to `CC(C)C[C@H](NC(=O)[C@H](CCCNC(=N)N)NC(=O)[C@H](CCC(N)=O)NC(=O)[C@@H](NC(=O)[C@H](C)NC(=O)[C@@H]1CSSC[C@H](NC(=O)[C@H](Cc2cnc[nH]2)NC(=O)CC[C@H](NC(=O)CCCCCCCCCCCCCCCCCCC(=O)O)C(=O)O)C(=O)N[C@@H](CC(N)=O)C(=O)N[C@@H]([C@@H](C)O)C(=O)N[C@@H](C)C(=O)N[C@@H]([C@@H](C)O)C(=O)N1)[C@@H](C)O)C(=O)N[C@@H](C)C(=O)N[C@@H](CCC(=O)O)C(=O)N[C@@H](Cc1ccccc1)C(=O)N[C@@H](CC(C)C)C(=O)N[C@@H](Cc1cnc[nH]1)C(=O)N[C@@H](CCCNC(=N)N)C(=O)N[C@@H](CO)C(=O)N[C@@H](CO)C(=O)N[C@@H](CC(N)=O)C(=O)N[C@@H](CC(N)=O)C(=O)N[C@@H](Cc1ccccc1)C(=O)NCC(=O)N[C@@H](C)C(=O)N1CCC[C@H]1C(=O)N[C@@H](CC(C)C)C(=O)N[C@@H](CO)C(=O)N[C@@H](CO)C(=O)N[C@H](C(=O)N[C@@H](CC(N)=O)C(=O)N[C@H](C(=O)NCC(=O)N[C@@H](CO)C(=O)N[C@@H](CC(N)=O)C(=O)N[C@H](C(=O)N[C@@H](Cc1ccc(O)cc1)C(N)=O)[C@@H](C)O)C(C)C)[C@@H](C)O` ({C20 diacid-γGlu}-HCNTATCATQRLAEFLHRSSNNFGAPLSSTNVGSNTY-NH2; disulfide 2-7), the EC50 in [1] was 0.107 nM; in [7] it was 0.218 nM. The TIME on Insulin (Homo sapiens) [4] worked out at 14 h. In the data set filed under Homo sapiens, the Ratio EC50 came out at 2. Also, the solubility came to 7 µM (≈ 31 µg/mL) in data set [8], 4 µM (≈ 17.7 µg/mL) in [13] and 200 µM (≈ 884 µg/mL) in data set [15]. Also, the Activity at Insulin (Homo sapiens) [9] was 0%.

Source of the values: ChEMBL document CHEMBL4842340, “Development of Cagrilintide, a Long-Acting Amylin Analogue” (J Med Chem, 2021).
